Patent US6277861A, “Anti-convulsant isoquinolyl-benzamide derivatives” (SmithKline Beecham, p.l.c., priority 1997, dated 2001)
Where a name gives a salt, the structure may show the parent alone.

Legend:
[1] = test system: maximal electroshock seizure threshold; assay: Maximal electroshock seizure (MEST) threshold test, mouse model; format: in vivo, mice; settings: 10 mg/kg p.o. at 2 h
Procedure: The maximal electroshock seizure (MEST) threshold test in rodents is particularly sensitive for detecting potential anticonvulsant properties^1. In this model, anticonvulsant agents elevate the threshold to electrically-induced seizures whilst proconvulsants lower the seizure threshold.
Mice (naive male, Charles River, U.K. CD-1 strain, 25-30 g) are randomly assigned to groups of 10-20 and dosed orally or intraperitoneally at a dose volume of 10 ml/kg with various doses of compound (0.3-300 mg/kg) or vehicle. […] The mean current and standard error required to induce a tonic seizure in 50% (CC50) of the mice in a particular treatment group is determined by the `up and down` method of Dixon and Mood (1948)^2. Statistical comparisons between vehicle- and drug-treated groups are made using the method of Litchfield and Wilcoxon (1949)^3.
In control animals the CC50 is usually 14-18 mA. […] If a tonic convulsion does occur, then the current is decreased, and so on until all the animals in the group have been tested.
Studies are carried out using a Hugo Sachs Electronik Constant Current Shock Generator with totally variable control of shock level from 0 to 300 mA and steps of 2 mA are usually used.

[2] = test system: maximal electroshock seizure threshold; assay: Maximal electroshock seizure (MEST) threshold test, rat model; format: in vivo, rats; settings: percentage increase in CC50 compared to the control, suspended in 1% methyl cellulose
Procedure: The maximal electroshock seizure (MEST) threshold test in rodents is particularly sensitive for detecting potential anticonvulsant properties^1. In this model, anticonvulsant agents elevate the threshold to electrically-induced seizures whilst proconvulsants lower the seizure threshold. The threshold for maximal (tonic hindlimb extension) electroshock seizures in male rats (Sprague Dawley, 80-150 g, 6 weeks old) was determined by a Hugo Sachs Electronik stimulator which delivered a constant current (0.3 sec duration; from 1-300 mA in steps of 5-20 mA). The procedure is similar to that outlined above for mouse and full details are as published by Upton et al,.^4 The percentage increase or decrease in CC50 for each group compared to the control is calculated. Drugs are suspended in 1% methyl cellulose.

[3] = target: novel receptor obtainable from rat forebrain tissue ([3H]-Compound A binding site); assay: Radioligand binding assay, displacement of [3H]-Compound A from rat forebrain tissue; settings: competition with [3H]-Compound A, Table
Procedure: WO 92/22293 (SmithKline Beecham) discloses compounds having anti-convulsantactivity, including inter alia the compound trans-(+)-6-acetyl-4S-(4-fluorobenzoylamino)-3,4-dihydro-2,2-dimethyl-2H-1-benzopyran-3R-ol (hereinafter referred to as Compound A). […] The affinity of test compounds to the novel receptor site is assessed as follows. Whole forebrain tissue is obtained from rats. The tissue is first homogenised in buffer (usually 50 mM Tris/HCl, pH 7.4). The homogenised tissue is washed by centrifugation and resuspension in the same buffer, then stored at -70° C. until used. To carry out the radioligand binding assay, aliquots of tissue prepared as above (usually at a concentration of 1-2 mg protein/ml) are mixed with aliquots of [3H]-Compound A dissolved in buffer. The final concentration of [3H]-Compound A in the mixture is usually 20 nM. The mixture is incubated at room temperature for 1 hour. [3H]-Compound A bound to the tissue is then separated from unbound [3H]-Compound A by filtration through Whatman GF/B glass fibre filters. The filters are then washed rapidly with ice-cold buffer. The amount of radioactivity bound to the tissue trapped on the filters is measured by addition of liquid scintillation cocktail to the filters followed by counting in a liquid scintillation counter. In order to determine the amount of "specific" binding of [3H]-Compound A, parallel assays are carried out as above in which [3H]-Compound A and tissue are incubated together in the presence of unlabelled Compound A (usually 3 μM). The amount of binding of [3H]-Compound A remaining in the presence of this unlabelled compound is defined as "non-specific" binding. This amount is subtracted from the total amount of [3H]-Compound A binding (i.e. that present in the absence of unlabelled compound) to obtain the amount of "specific" binding of [3H]-Compound A to the novel site. The affinity of the binding of test compounds to the novel site can be estimated by incubating together [3H]-Compound A and tissue in the presence of a range of concentrations of the compound to be tested. The decrease in the level of specific [3H]-Compound A binding as a result of competition by increasing concentrations of the compound under test is plotted graphically, and non-linear regression analysis of the resultant curve is used to provide an estimate of compound affinity in terms of pKi value.

| SMILES | percentage increases in seizure threshold [1] | Rat MEST at 2 mg/kg p.o at 2h (increases) [2] | pKI Compound A [3] |
| --- | --- | --- | --- |
| COc1cc(C)c(C(F)(F)F)cc1C(=O)Nc1cccc2c1CCN(C)C2C (racemic) [Example 6, (±) N-(1,2-Dimethyl-1,2,3,4-tetrahydroisoquinolin-5-yl)-5-trifluoromethyl-2-methoxy-4-methyl benzamide, hydrochloride] | 36% |  |  |
| CCOc1ccc(C(=O)Nc2ccc3c(c2)CN(C)CC3(C)C)cc1Br [Example 10, N-(2,4,4-Trimethyl-4H-isoquinolin-7-yl)-3-bromo-4-ethoxybenzamide] |  | 294 | 8.2 |
| COc1cc(C(C)(C)C)ccc1C(=O)Nc1cccc2c1CCN(C)C2C (racemic) [Example 5, (±) N-(1,2-Dimethyl-1,2,3,4-tetrahydroisoquinolin-5-yl)-tert-butyl-2-methoxybenzamide, hydrochloride] | 46% |  |  |
| COc1cc(OC(C)C)c(Cl)cc1C(=O)Nc1cccc2c1CCN(C)C2C (racemic) [Example 4, (±) N-(1,2-Dimethyl-1,2,3,4-tetrahydroisoquinolin-5-yl)-5-chloro-4-iso-propoxy-2-methoxybenzamide, hydrochloride] | 47% |  |  |
| CC(C)c1ccc(C(=O)Nc2ccc3c(c2)CN(C)CC3(C)C)cc1C#N [Example 8, N-(2,4,4-Trimethyl-4H-isoquinolin-7-yl)-3-cyano-4-iso-propylbenzamide] |  | 120 | 8.0 |
| CCc1ccc(C(=O)Nc2ccc3c(c2)CN(C)CC3(C)C)cc1Br [Example 9, N-(2,4,4,-Trimethyl-4H-isoquinolin-7-yl)-3-bromo-4-ethylbenzamide] |  | 53 | 8.3 |
| COc1ccc(C(=O)Nc2ccc3c(c2)CN(C)CC3(C)C)cc1C(F)(F)F.Cl [Example 7, N-(2,4,4-Trimethyl-4H-isoquinolin-7-yl)-4-methoxy-3-trifluoromethylbenzamide, hydrochloride] |  | 510 | 8.5 |
| CC(C)Oc1ccc(C(=O)Nc2ccc3c(c2)CN(C)CC3(C)C)cc1Cl [Example 11, N-(2,4,4-Trimethyl-4H-isoquinolin-7-yl)-3-chloro--4-iso-propoxybenzamide] |  | 204 | 7.9 |
